SMILES strings stand for the structures. Read-outs that look alike come from different tables or passages of the source.

For data set [1], the target named is T1, ABL1(M351T)-phosphorylated (Homo sapiens, UniProt P00519, M351T). Description: biochemical. Particulars: read-out: Percent control.
The target in data set [2] is ABL1(T315I)-nonphosphorylated (Homo sapiens, UniProt P00519, T315I). The data set is described as follows: biochemical. The conditions noted are these: read-out: Percent control.
The target in data set [3] is T2, FLT3(R834Q) (Homo sapiens, UniProt P36888, R834Q).
T2 sequence (P36888 27-993 R834Q): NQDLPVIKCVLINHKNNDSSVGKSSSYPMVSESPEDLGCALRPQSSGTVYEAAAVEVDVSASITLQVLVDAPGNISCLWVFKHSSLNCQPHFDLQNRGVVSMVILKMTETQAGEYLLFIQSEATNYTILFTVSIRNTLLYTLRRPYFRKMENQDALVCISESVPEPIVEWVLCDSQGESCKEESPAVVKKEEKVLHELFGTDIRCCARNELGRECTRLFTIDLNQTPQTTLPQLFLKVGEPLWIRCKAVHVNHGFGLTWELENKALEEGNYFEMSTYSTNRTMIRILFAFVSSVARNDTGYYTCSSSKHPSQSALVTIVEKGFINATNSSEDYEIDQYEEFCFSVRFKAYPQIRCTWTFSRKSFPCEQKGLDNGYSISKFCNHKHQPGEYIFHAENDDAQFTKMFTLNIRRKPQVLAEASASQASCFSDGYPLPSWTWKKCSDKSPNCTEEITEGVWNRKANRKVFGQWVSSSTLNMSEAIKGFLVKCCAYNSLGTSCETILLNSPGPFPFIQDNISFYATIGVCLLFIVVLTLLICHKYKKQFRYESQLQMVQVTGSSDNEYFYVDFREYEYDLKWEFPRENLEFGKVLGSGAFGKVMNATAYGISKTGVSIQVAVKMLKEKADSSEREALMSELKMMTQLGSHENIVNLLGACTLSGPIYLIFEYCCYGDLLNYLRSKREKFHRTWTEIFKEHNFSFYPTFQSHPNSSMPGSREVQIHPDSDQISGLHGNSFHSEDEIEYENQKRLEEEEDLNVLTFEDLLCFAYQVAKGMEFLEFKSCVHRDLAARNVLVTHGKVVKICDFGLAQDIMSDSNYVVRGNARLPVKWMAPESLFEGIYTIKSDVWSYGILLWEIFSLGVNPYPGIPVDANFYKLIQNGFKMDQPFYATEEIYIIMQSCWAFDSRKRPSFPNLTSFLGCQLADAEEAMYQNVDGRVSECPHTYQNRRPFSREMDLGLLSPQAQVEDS
The data set is described as follows: biochemical. Particulars: read-out: Percent control.

Data set [4] addresses ABL1-phosphorylated (Homo sapiens, UniProt P00519). The data set is described as follows: biochemical. Particulars: read-out: Percent control.
For data set [5], the target named is RET (Homo sapiens, UniProt P07949). The data set is described as follows: biochemical. Particulars: read-out: Percent control.
Sequence of RET (P07949 29-1114): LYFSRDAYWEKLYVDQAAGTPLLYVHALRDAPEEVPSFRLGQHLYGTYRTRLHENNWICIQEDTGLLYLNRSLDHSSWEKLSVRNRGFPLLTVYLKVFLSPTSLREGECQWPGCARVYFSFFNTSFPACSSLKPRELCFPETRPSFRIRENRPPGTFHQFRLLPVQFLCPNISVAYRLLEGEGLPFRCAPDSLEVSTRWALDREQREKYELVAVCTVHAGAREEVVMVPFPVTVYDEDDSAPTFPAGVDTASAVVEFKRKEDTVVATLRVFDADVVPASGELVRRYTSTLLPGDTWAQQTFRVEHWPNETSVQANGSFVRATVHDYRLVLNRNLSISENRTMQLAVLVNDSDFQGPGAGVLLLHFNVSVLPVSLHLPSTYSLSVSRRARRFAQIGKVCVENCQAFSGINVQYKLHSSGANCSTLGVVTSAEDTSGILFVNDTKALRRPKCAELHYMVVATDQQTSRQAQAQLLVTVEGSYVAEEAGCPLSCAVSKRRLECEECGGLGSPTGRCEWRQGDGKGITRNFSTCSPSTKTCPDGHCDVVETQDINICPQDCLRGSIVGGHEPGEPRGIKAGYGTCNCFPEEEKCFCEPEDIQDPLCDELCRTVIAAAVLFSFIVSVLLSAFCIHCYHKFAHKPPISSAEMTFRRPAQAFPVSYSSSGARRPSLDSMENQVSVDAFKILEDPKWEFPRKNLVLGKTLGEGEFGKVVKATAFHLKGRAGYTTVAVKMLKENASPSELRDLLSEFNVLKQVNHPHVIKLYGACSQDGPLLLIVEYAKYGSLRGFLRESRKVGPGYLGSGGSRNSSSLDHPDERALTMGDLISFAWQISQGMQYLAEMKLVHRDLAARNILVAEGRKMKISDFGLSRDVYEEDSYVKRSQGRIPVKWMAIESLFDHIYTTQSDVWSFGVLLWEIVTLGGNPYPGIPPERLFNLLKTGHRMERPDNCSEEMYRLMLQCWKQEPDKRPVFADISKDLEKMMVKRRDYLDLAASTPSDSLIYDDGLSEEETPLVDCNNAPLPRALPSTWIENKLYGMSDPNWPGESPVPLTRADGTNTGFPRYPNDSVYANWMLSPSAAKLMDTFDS
Data set [6] deals with ABL1(H396P)-nonphosphorylated (Homo sapiens, UniProt P00519, H396P). Description: biochemical. Particulars: read-out: Percent control.
Data set [7] has as its target FGFR3 (Homo sapiens, UniProt P22607). Description: biochemical. The conditions noted are these: read-out: Percent control.
The target in data set [8] is P-gp (Homo sapiens, UniProt P08183). Description: in vitro. Particulars: dog, MDCK-MDR1, pH 7.4.
Sequence of P-gp (P08183 whole entry): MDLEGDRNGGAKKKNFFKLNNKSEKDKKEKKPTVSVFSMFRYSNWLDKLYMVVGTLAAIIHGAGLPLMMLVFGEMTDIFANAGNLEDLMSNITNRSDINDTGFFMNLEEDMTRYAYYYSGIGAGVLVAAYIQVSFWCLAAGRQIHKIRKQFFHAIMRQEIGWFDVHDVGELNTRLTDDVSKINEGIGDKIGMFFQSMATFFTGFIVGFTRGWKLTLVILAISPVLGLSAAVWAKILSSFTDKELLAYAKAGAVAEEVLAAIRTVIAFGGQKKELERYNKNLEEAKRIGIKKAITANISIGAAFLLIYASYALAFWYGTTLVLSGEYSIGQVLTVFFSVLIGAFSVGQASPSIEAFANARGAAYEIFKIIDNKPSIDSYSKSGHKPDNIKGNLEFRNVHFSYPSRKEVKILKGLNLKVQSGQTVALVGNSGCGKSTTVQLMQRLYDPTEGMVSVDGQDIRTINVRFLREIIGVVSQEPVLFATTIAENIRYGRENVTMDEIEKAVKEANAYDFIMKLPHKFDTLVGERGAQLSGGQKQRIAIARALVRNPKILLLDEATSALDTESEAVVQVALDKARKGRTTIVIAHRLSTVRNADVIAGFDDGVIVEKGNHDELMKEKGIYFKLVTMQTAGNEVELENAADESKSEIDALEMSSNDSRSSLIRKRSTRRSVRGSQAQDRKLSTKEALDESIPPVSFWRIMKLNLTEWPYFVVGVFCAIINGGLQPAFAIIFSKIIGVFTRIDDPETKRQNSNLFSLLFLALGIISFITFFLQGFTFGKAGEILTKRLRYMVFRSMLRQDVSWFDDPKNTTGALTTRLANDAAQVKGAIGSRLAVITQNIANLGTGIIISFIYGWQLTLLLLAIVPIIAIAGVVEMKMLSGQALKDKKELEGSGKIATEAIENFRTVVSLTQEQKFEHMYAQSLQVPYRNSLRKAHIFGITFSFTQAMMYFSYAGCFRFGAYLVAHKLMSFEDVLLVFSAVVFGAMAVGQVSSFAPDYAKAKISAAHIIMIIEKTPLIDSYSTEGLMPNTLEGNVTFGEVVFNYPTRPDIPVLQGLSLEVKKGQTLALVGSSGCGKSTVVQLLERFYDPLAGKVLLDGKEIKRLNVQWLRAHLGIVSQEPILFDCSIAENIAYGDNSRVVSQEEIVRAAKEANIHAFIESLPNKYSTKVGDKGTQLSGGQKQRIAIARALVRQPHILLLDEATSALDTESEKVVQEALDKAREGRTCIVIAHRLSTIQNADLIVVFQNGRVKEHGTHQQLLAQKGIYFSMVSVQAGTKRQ
For data set [9], the target named is T3, FLT3(K663D) (Homo sapiens, UniProt P36888, K663Q).
T3 sequence (P36888 564-993 K663Q limits assumed): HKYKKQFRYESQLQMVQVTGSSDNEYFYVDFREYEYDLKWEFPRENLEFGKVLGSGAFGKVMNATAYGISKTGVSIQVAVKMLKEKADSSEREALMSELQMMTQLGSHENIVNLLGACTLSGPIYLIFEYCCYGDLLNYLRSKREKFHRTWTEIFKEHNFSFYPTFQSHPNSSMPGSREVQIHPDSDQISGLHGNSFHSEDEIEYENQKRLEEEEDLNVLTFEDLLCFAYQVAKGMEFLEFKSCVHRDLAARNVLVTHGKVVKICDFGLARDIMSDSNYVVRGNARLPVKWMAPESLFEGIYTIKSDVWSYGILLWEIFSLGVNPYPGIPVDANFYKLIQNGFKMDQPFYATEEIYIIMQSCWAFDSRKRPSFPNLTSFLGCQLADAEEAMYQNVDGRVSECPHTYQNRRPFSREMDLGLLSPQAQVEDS
The data set is described as follows: biochemical. The conditions noted are these: read-out: Percent control.

In data set [10] the target is EGFR(L861Q) (Homo sapiens, UniProt P00533, L861Q). The conditions noted are these: 10 μM.
For data set [11], the system named is K562. Description: Anticancer activity (cytotoxicity) in CML cell line. It is filed as cell-based.
The subject of data set [12] is HCC827. Description: Anticancer activity (cytotoxicity) in NSCLC cell line. It counts as cell-based. Particulars: Homo sapiens, HCC827, EGFR ΔE746-A750 (sensitizing).
Data set [13] concerns the target TIE2 (Homo sapiens, UniProt Q02763). Description: biochemical. The conditions noted are these: read-out: Percent control.
The target of data set [14] is ABL1(F317L)-nonphosphorylated (Homo sapiens, UniProt P00519, F317L). The conditions noted are these: 10 μM.
Data set [15] deals with ABL1(H396P)-phosphorylated (Homo sapiens, UniProt P00519, H396P). Particulars: 10 μM.
The target of data set [16] is T1, ABL1(M351T)-phosphorylated. Particulars: 10 μM.

Sequence of TIE2 (Q02763 23-1124): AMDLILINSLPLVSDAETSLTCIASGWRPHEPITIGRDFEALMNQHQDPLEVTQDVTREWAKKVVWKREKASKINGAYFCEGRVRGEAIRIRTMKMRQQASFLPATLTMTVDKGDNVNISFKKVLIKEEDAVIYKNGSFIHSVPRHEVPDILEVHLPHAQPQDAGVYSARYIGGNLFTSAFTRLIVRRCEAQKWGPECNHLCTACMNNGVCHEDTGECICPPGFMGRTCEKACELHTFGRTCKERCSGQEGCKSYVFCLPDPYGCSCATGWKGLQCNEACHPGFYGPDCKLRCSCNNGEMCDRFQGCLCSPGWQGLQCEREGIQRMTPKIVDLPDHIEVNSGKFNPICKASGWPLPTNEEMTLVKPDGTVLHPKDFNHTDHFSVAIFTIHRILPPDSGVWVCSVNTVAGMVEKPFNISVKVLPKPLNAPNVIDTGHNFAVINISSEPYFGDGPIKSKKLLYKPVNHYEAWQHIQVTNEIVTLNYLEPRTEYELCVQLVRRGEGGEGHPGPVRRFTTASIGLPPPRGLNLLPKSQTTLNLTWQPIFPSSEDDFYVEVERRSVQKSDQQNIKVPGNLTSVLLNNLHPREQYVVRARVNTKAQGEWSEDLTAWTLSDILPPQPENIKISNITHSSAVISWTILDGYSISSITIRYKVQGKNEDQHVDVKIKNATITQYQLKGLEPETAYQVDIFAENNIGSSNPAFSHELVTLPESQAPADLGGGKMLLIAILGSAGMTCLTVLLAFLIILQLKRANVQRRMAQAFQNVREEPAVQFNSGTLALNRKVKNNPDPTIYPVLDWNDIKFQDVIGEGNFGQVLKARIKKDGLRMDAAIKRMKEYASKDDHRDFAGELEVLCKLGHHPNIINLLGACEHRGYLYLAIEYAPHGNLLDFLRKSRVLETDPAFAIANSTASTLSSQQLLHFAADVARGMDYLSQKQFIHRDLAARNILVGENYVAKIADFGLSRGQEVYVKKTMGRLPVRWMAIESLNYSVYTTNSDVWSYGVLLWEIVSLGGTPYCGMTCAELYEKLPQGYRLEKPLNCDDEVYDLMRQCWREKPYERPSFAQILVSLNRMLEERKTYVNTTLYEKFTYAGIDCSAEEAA
Sequence of FGFR3 (P22607 23-806): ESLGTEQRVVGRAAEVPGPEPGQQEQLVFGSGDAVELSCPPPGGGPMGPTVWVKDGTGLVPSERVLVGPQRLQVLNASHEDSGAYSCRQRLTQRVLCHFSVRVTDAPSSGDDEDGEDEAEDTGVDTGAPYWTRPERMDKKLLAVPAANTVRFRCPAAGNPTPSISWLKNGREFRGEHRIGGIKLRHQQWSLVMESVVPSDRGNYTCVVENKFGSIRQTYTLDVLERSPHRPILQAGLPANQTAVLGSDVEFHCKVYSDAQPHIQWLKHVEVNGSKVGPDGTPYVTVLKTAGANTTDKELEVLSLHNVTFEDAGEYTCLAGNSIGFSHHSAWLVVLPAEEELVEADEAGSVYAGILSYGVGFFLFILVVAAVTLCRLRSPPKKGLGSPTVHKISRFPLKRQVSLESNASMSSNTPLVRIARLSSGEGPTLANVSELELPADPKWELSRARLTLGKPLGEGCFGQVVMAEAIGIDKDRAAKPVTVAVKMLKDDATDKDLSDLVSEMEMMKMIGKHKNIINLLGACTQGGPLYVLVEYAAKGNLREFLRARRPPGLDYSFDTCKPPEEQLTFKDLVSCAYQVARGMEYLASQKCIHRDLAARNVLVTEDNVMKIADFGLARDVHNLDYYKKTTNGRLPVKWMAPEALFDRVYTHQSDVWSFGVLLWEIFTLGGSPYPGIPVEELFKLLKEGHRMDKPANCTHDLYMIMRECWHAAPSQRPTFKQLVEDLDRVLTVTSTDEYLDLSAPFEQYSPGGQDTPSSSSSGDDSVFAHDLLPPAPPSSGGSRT

With `C#Cc1cccc(Nc2ncnc3cc(OCCOC)c(OCCOC)cc23)c1` [Erlotinib], the remaining activity at 10 µM in data set [1] was 0.7%; in data set [2], 5.8%; in data set [3] it was 100%; in data set [4], 0.8%; in [5], 11.5%; in data set [6], 0.9%. In addition, the remaining activity at 10 µM in data set [7] was 100%; in data set [9], 11.5%. Further, the Papp A→B at 120 min, 10 μM in data set [8] is 18.4 ×10⁻⁶ cm/s. The same compound registered a basolateral-to-apical permeability (Papp B→A) at 120 min, 10 μM in data set [8] of 74.2 ×10⁻⁶ cm/s.

Regarding `Cc1ccc(NC(=O)c2ccc(CN3CCN(C)CC3)cc2)cc1Nc1nccc(-c2cccnc2)[n+]1[Pt-2]1([Cl])[NH2+]C2CCCCC2[NH2+]1` (stereo not drawn) [1b, oxaliplatin-imatinib], the Percent control in [10] turned out to be 42%. In addition, the IC50 in [11] (CML cell line, Bcr-Abl positive, Table 1, read-out: Anticancer activity (IC50) K562) came to 2270 ± 330 nM; in [11] (Table 2, read-out: Anticancer activity (IC50) K562 Sensitive parental) it was 2270 ± 330 nM.

Regarding `COc1cc2c(Nc3ccc(Br)cc3F)ncnc2cc1OCC1CCN(C)CC1` [Vandetanib, reference compound], the IC50 in [12] was 11 ± 2 nM. In data set [13], the remaining activity at 10 µM was 9.1%.

With `C#Cc1cccc(Nc2c3cc(OCCOC)c(OCCOC)cc3nc[n+]2[Pt@SP2-2]([NH3+])([NH3+])[Cl])c1` [2a, cisplatin-erlotinib], the Percent control in [14] turned out to be 61%; in data set [15] it was 13%; in data set [16] it was 15%.

The values above are taken from paper PMC4858680, “A platinum-based hybrid drug design approach to circumvent acquired resistance to molecular targeted tyrosine kinase inhibitors” (Scientific Reports, 2016).
